Data taken from patent US20140094465A1, “Compounds as S-Nitrosoglutathione Reductase Inhibitors” (N30 PHARMACEUTICALS, INC., priority 2011, published 2014).

How the values were obtained:
[1] = Mouse pharmacokinetic (PK) study; type: in vivo; details: male, BALB/c, plasma, po, 10 mg/kg, male BALB/c mice, 2 mg/kg IV, 10 mg/kg PO, read-out: oral bioavailability (% F)
Description: The mouse was used to determine the pharmacokinetics of compounds of the invention. This species is widely used to assess the bioavailability of compounds by administering both oral (PO) and intravenous (IV) test articles. Efficacy of the compounds of the invention was compared by assessing plasma exposure in male BALB/c mice either via IV or PO administration at the times of peak activity.
Compounds of the invention were reconstituted in a phosphate buffered saline (PBS)/10% Solutol (HS 15) clear solution resulting in a concentration of 0.2 mg/mL and administered to mice (2 mg/kg) as a single IV dose. Animals were dosed via the lateral tail vein. Blood samples were collected at designated time points (0.083, 0.25, 0.5, 1, 2, 4, 8, 16, 24 hours) by cardiac puncture under isoflurane anesthesia (up to 1 mL blood per animal). The blood was collected into tubes containing Li-Heparin. The blood samples were kept on ice until centrifugation within approximately 30 minutes of collection. The plasma was transferred into labeled polypropylene tubes and frozen at −70° C. until analyzed by LC/MS/MS.
The compounds of the invention were reconstituted in 40% Propylene Glycol/40% Propylene Carbonate/20% of a 5% Sucrose clear solution resulting in a concentration of 2 mg/mL and administered to mice (10 mg/kg) as a single oral dose via gavage. Blood samples were collected at 0.25, 0.5, 1, 2, 4, 8, 12, 16, 20 and 24 hours post dose by cardiac puncture under isoflurane anesthesia. The blood was collected in tubes containing Li-Heparin. The blood samples were kept on ice until centrifugation within approximately 30 minutes of collection. The plasma was transferred into labeled polypropylene tubes and frozen at −70° C. until analyzed by LC/MS/MS.
Plasma samples at each timepoint were analyzed using a LC-MS/MS with a lower limit of quantification (LLOQ) of 1 ng/mL. Plasma was analyzed to determine the amount of the compound of the invention in each sample and regression curves generated for each compounds of the invention in the relevant matrixes.
WinNonlin analysis was used for calculating PK parameters for both the IV and PO administrations:
PK parameters for IV portion—AUClast; AUCINF; T1/2; Cl; Vss; Cmax; MRT
PK parameters for PO portion—AUClast; AUCINF; T1/2; Cmax; Cl, MRT.
In addition to the above PK parameters, bioavailability (% F) was calculated.

[2] = target: T1, S-nitrosoglutathione reductase (GSNOR) (Homo sapiens, UniProt P11766); assay: GSNOR assay (inhibition of GSNOR activity, NADH absorbance at 340 nm); type: biochemical; details: GSNOR inhibitor activity, Tables 1-6; read-out: IC50 range
T1 construct: made in house; host or cells: E. coli
T1 sequence (P11766 whole entry): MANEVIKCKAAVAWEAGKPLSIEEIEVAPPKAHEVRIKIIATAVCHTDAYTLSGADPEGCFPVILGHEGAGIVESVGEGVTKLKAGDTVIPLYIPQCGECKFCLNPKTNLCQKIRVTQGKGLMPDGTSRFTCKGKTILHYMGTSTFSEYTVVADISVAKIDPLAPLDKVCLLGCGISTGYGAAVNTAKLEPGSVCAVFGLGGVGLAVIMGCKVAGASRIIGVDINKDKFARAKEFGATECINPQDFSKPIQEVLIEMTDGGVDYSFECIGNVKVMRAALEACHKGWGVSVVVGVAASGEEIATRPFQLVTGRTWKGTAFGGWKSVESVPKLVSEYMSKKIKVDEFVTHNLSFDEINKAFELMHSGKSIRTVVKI
Summary of the method: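 Recombinant GSNOR purified from E. coli, tag removed. Final conditions: 100 mM NaPO4 pH 7.4, 0.240 mM GSNO, 0.300 mM NADH, 0.5 μg/mL enzyme, 1% DMSO; NADH loss followed as 340 nm absorbance change over 3 min at 25 °C. Compounds 100–0.003 μM, triplicate; IC50 by curve analysis.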

[3] = system: dextran sodium sulfate (DSS)-induced IBD; assay: Acute prophylactic model of DSS-induced IBD; type: in vivo, mouse; details: for decrease of percent of mice with severe colon injury scores via histopathology / decrease of percent of mice with severe colon injury scores via endoscopy: prophylactic

Q: What does the source list for `O=c1[nH]c(-c2ccc(-c3c(C(F)(F)F)oc4cc(O)ccc4c3=O)cc2)no1` [IV-31]?
A: bioavailability [1]: > 9%; IC50 [2]: < 100 nM

Q: Which bioavailability [1] does the source give for `O=C(O)c1ccc(-c2ccc3cc(O)ccc3c2)c(F)c1` [III-2] here?
A: > 9%

Q: What about the IC50 [2] of the same compound?
A: < 100 nM

Q: And the “decrease of percent of mice with severe colon injury scores via histopathology” value ([3]; oral 10 mg/kg/day for 10 days)?
A: 26 % of vehicle control

Q: With `O=c1c(-c2ccc(-c3nnn[nH]3)cc2)c(C(F)(F)F)oc2cc(O)ccc12` [IV-23] as the compound, how does the bioavailability [1] read?
A: > 9%

Q: And the IC50 [2]?
A: < 100 nM

Q: And the “decrease of percent of mice with severe colon injury scores via endoscopy” value ([3]; oral 10 mg/kg/day for 10 days)?
A: 75 % of vehicle control

Q: And the “decrease of percent of mice with severe colon injury scores via histopathology” value ([3]; oral 10 mg/kg/day for 10 days)?
A: 17 % of vehicle control

Q: For `O=C(O)c1ccc(-c2c(C(F)(F)F)oc3cc(O)ccc3c2=O)c(F)c1` [IV-38], which bioavailability [1] is on record?
A: > 9%

Q: What about the IC50 [2] of the same compound?
A: < 100 nM

Q: What about the “decrease of percent of mice with severe colon injury scores via endoscopy” value ([3]; oral 10 mg/kg/day for 10 days) of the same compound?
A: 58 % of vehicle control

Q: And the “decrease of percent of mice with severe colon injury scores via histopathology” value ([3]; oral 10 mg/kg/day for 10 days)?
A: 15 % of vehicle control

Q: Which results are given for `O=c1c2ccc(O)cc2oc(C(F)(F)F)c1[C@H]1CC[C@H](C(=O)O)CC1` [IV-25]?
A: bioavailability [1]: > 9%; IC50 [2]: < 100 nM; decrease of percent of mice with severe colon injury scores via pathology ([3]; oral 0.1 mg/kg/day for 10 days): 12 % of vehicle control; decrease of percent of mice with severe colon injury scores via endoscopy ([3]; oral 0.1 mg/kg/day for 10 days): 38 % of vehicle control; decrease of percent of mice with severe colon injury scores via endoscopy ([3]; oral 1 mg/kg/day for 10 days): 25 % of vehicle control; decrease of percent of mice with severe colon injury scores via histopathology ([3]; oral 1 mg/kg/day for 10 days): 33 % of vehicle control
